Experimental data: PubChem BioAssay (NCI)
Values joined by “and” are separate entries in the source; they are usually repeats but may differ in a detail not shown here. Equal values may be shown once.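 All cell lines were grown in 96-well plates and treated with compound for 48 hours. TGI: total growth inhibition.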 Square brackets hold non-standard residues; d marks the D form. Peptide text beside a SMILES is read from it. Phe(4-NO2) = N[CH](Cc1ccc([N+](=O)[O-])cc1)C(=O)O

Experiments:
Assay in all cases: NCI anticancer screen, dose series, 48 h
SN12C renal = system: SN12C renal
UACC-62 melanoma = system: UACC-62 melanoma
SF-268 CNS = system: SF-268 CNS
HCT-116 colon = system: HCT-116 colon
SK-MEL-2 melanoma = system: SK-MEL-2 melanoma
OVCAR-4 ovarian = system: OVCAR-4 ovarian

## COC(=O)/C=C/c1cnc2c(c1)oc(=O)n2C
SN12C renal
  TGI: > 100 µM
UACC-62 melanoma
  TGI: > 100 µM
SF-268 CNS
  TGI: > 100 µM
HCT-116 colon
  TGI: > 100 µM
SK-MEL-2 melanoma
  TGI: > 100 µM
OVCAR-4 ovarian
  TGI: > 100 µM

## COC(=O)C1(Cc2ccc(C)cc2)Cc2c(C)cccc2C1=O (configuration not stated)
SN12C renal
  TGI: 43.4 µM
UACC-62 melanoma
  TGI: 92 µM
SF-268 CNS
  TGI: > 100 µM
HCT-116 colon
  TGI: 31.9 µM
SK-MEL-2 melanoma
  TGI: 28.7 µM
OVCAR-4 ovarian
  TGI: 98.9 µM

## OC1(C2(c3ccc(Cl)cc3)CCCC2)c2ccccc2C2=NCCN21 (configuration not stated)
SN12C renal
  TGI: 31.5 µM
UACC-62 melanoma
  TGI: 29.7 µM
SF-268 CNS
  TGI: 35.1 µM
HCT-116 colon
  TGI: 24.4 µM
OVCAR-4 ovarian
  TGI: 28.8 µM

## CC(C)(C)OC(=O)N1CCC(NC(=O)NC2CCN(C(=O)OC(C)(C)C)CC2)CC1
SN12C renal
  TGI: > 100 µM
UACC-62 melanoma
  TGI: > 100 µM
SF-268 CNS
  TGI: > 100 µM
HCT-116 colon
  TGI: > 100 µM
SK-MEL-2 melanoma
  TGI: > 100 µM
OVCAR-4 ovarian
  TGI: > 100 µM

## CC(=O)OCCCCn1cnc2c(Cl)nc(Nc3ccccc3)nc21
SN12C renal
  TGI: > 100 µM
UACC-62 melanoma
  TGI: > 100 µM
HCT-116 colon
  TGI: > 100 µM
OVCAR-4 ovarian
  TGI: > 100 µM

## O=C1CSC(c2cccc(Oc3ccccc3)c2)N1c1cccc(Cl)c1Cl (configuration not stated)
SN12C renal
  TGI: > 100 µM
UACC-62 melanoma
  TGI: 46.9 µM
SF-268 CNS
  TGI: 60 µM
HCT-116 colon
  TGI: 38.5 µM
SK-MEL-2 melanoma
  TGI: 34.9 µM
OVCAR-4 ovarian
  TGI: > 100 µM

## C/C(=N\Nc1nc2ccccc2o1)c1cc2ccccc2cn1
SN12C renal
  TGI: 33.7 µM
UACC-62 melanoma
  TGI: 2.53 µM
SF-268 CNS
  TGI: 2.82 µM
HCT-116 colon
  TGI: 15.8 µM
SK-MEL-2 melanoma
  TGI: 12.2 µM
OVCAR-4 ovarian
  TGI: 8.25 µM

## CCSc1nc(C)nc2c1sc1nc3ccccc3n12
SN12C renal
  TGI: > 100 µM
UACC-62 melanoma
  TGI: > 100 µM
SF-268 CNS
  TGI: > 100 µM
HCT-116 colon
  TGI: > 100 µM
SK-MEL-2 melanoma
  TGI: > 100 µM
OVCAR-4 ovarian
  TGI: > 100 µM

## COc1cc2c3cc1Oc1c(OC)c(OC)cc4c1C(Cc1ccc(O)c(c1)-c1cc(ccc1OC)CC3N(C)CC2)N(C)CC4 (configuration not stated)
SN12C renal
  TGI: 42.7 µM
UACC-62 melanoma
  TGI: 57.2 µM
SF-268 CNS
  TGI: 72.3 µM
HCT-116 colon
  TGI: > 100 µM
SK-MEL-2 melanoma
  TGI: 43 µM
OVCAR-4 ovarian
  TGI: > 100 µM

## CNC(=O)OCC1=C(COC(=O)NC)C(C)N(c2ccccc2)C1 (configuration not stated)
SN12C renal
  TGI: > 100 µM
UACC-62 melanoma
  TGI: 68.8 µM
SF-268 CNS
  TGI: > 100 µM
HCT-116 colon
  TGI: > 100 µM
SK-MEL-2 melanoma
  TGI: 70.6 µM
OVCAR-4 ovarian
  TGI: > 100 µM

## Clc1nc(Nc2nc3ccccc3[nH]2)nc(Cl)c1-c1ccccc1
SN12C renal
  TGI: 31.1 µM
UACC-62 melanoma
  TGI: 36.9 µM
SF-268 CNS
  TGI: > 100 µM
HCT-116 colon
  TGI: > 100 µM
SK-MEL-2 melanoma
  TGI: 55.9 µM
OVCAR-4 ovarian
  TGI: 32.8 µM

## COC(=O)CCC(NC(=O)C(CCC(=O)OC)NC(=O)C(CCC(=O)OC)NC(=O)C(CCC(=O)OC)NC(=O)C(CCC(=O)OC)NC(=O)C(Cc1ccc([N+](=O)[O-])cc1)NC(=O)C(CCC(=O)OC)NC(=O)C(CCC(=O)OC)NC(=O)C(CCC(=O)OC)NC(=O)C(CCC(=O)OC)NC(=O)C(CCC(=O)OC)NC(C)=O)C(N)=O (configuration not stated) (Ac-E(OMe)E(OMe)E(OMe)E(OMe)E(OMe)[Phe(4-NO2)]E(OMe)E(OMe)E(OMe)E(OMe)E(OMe)-NH2; configuration not given here)
SN12C renal
  TGI: > 100 µM
SF-268 CNS
  TGI: > 100 µM
HCT-116 colon
  TGI: > 100 µM
SK-MEL-2 melanoma
  TGI: > 100 µM
OVCAR-4 ovarian
  TGI: > 100 µM

## C=COC(=O)N1C2CCCC(Cl)(C(C)=O)C1CC2 (configuration not stated)
SN12C renal
  TGI: > 100 µM
UACC-62 melanoma
  TGI: > 100 µM
SF-268 CNS
  TGI: > 100 µM
HCT-116 colon
  TGI: > 100 µM
SK-MEL-2 melanoma
  TGI: > 100 µM
OVCAR-4 ovarian
  TGI: > 100 µM

## O=c1oc2ccccc2n1CCCn1c(=O)oc2ccccc21
SN12C renal
  TGI: > 100 µM
UACC-62 melanoma
  TGI: > 100 µM
SF-268 CNS
  TGI: > 100 µM
HCT-116 colon
  TGI: > 100 µM
SK-MEL-2 melanoma
  TGI: > 100 µM

## Cc1nn(C(=O)c2ccncc2)c2c1C(c1ccc([N+](=O)[O-])cc1)SC(N)=N2 (configuration not stated)
SN12C renal
  TGI: > 100 µM
UACC-62 melanoma
  TGI: > 100 µM
SF-268 CNS
  TGI: > 100 µM
HCT-116 colon
  TGI: > 100 µM
SK-MEL-2 melanoma
  TGI: > 100 µM
OVCAR-4 ovarian
  TGI: > 100 µM

## Nc1ncnc2c1cnn2COCC(O)CO (configuration not stated)
SN12C renal
  TGI: > 100 µM
UACC-62 melanoma
  TGI: > 100 µM
SF-268 CNS
  TGI: > 100 µM
HCT-116 colon
  TGI: > 100 µM
SK-MEL-2 melanoma
  TGI: > 100 µM
OVCAR-4 ovarian
  TGI: > 100 µM

## O=C(c1cccc2cc(O)ccc12)c1cn(CCN2CCOCC2)c2ccccc12
SN12C renal
  TGI: > 100 µM
UACC-62 melanoma
  TGI: 38.5 µM
SF-268 CNS
  TGI: > 100 µM
HCT-116 colon
  TGI: 38.9 µM
SK-MEL-2 melanoma
  TGI: 25 µM

## Nc1nc(Cl)c(C=O)c(NCC2(CO)CCC2)n1
SN12C renal
  TGI: > 100 µM
UACC-62 melanoma
  TGI: 35.1 µM
SF-268 CNS
  TGI: 51.8 µM
HCT-116 colon
  TGI: 40.6 µM
SK-MEL-2 melanoma
  TGI: 28.3 µM
OVCAR-4 ovarian
  TGI: 32.9 µM

## CC1(C)/C(=N\Nc2ccc([N+](=O)[O-])cc2[N+](=O)[O-])C2CCC1C2 (configuration not stated)
SN12C renal
  TGI: > 100 µM
UACC-62 melanoma
  TGI: > 100 µM
SF-268 CNS
  TGI: > 100 µM
HCT-116 colon
  TGI: > 100 µM
SK-MEL-2 melanoma
  TGI: > 100 µM
OVCAR-4 ovarian
  TGI: > 100 µM

## C=CCN(c1cc(OC)c2c(c1[N+](=O)[O-])C(C)(SC)C(=O)N2)S(C)(=O)=O (configuration not stated)
SN12C renal
  TGI: > 100 µM
UACC-62 melanoma
  TGI: > 100 µM
SF-268 CNS
  TGI: > 100 µM
HCT-116 colon
  TGI: > 100 µM
SK-MEL-2 melanoma
  TGI: > 100 µM
OVCAR-4 ovarian
  TGI: > 100 µM

## COc1ccc(Br)c(C=Nc2cccc3cc(OC)c(OC)cc23)c1
SN12C renal
  TGI: > 46.4 µM
UACC-62 melanoma
  TGI: > 83 µM
SF-268 CNS
  TGI: > 100 µM
HCT-116 colon
  TGI: 34.2 µM
SK-MEL-2 melanoma
  TGI: > 100 µM
OVCAR-4 ovarian
  TGI: > 100 µM

## Cn1c(O)c(C=Nc2ccc(Cl)cc2Cl)c(=O)n(C)c1=O
SN12C renal
  TGI: > 100 µM
UACC-62 melanoma
  TGI: > 100 µM
SF-268 CNS
  TGI: > 100 µM
HCT-116 colon
  TGI: > 100 µM
SK-MEL-2 melanoma
  TGI: > 100 µM
OVCAR-4 ovarian
  TGI: > 100 µM

## CS(=O)(=O)CCC(N)P(=O)(O)O (configuration not stated)
SN12C renal
  TGI: > 100 µM
UACC-62 melanoma
  TGI: > 100 µM
SF-268 CNS
  TGI: > 100 µM
HCT-116 colon
  TGI: > 100 µM
SK-MEL-2 melanoma
  TGI: > 100 µM
OVCAR-4 ovarian
  TGI: > 100 µM

## CCNC1=C(NC(=O)CCl)C(=O)c2ccccc2C1=O
SN12C renal
  TGI: 32.8 µM
SF-268 CNS
  TGI: 32.8 µM
HCT-116 colon
  TGI: 33.7 µM
OVCAR-4 ovarian
  TGI: 30.7 µM

## S=C(S)N1CCN(c2ccccc2)CC1
SN12C renal
  TGI: > 100 µM
SF-268 CNS
  TGI: > 100 µM
HCT-116 colon
  TGI: > 100 µM
SK-MEL-2 melanoma
  TGI: > 100 µM

## CCCCN1CCC(O)(c2cc(C(=O)O)[nH]c2-c2cc(C)no2)C1=O (configuration not stated)
UACC-62 melanoma
  TGI: > 100 µM
SF-268 CNS
  TGI: > 100 µM
HCT-116 colon
  TGI: > 100 µM
SK-MEL-2 melanoma
  TGI: > 100 µM
OVCAR-4 ovarian
  TGI: > 100 µM

## O=C(N[C@@H](Cc1ccccc1)B(O)O)[C@H](Cc1cccc2ccccc12)NC(=O)N1CCOCC1
SN12C renal
  TGI: 0.0226 µM and 0.0268 µM
UACC-62 melanoma
  TGI: 0.0119 µM and 0.0391 µM
SF-268 CNS
  TGI: 0.00654 µM and 0.058 µM
HCT-116 colon
  TGI: 0.00208 µM
OVCAR-4 ovarian
  TGI: 0.0301 µM and 0.204 µM

## CO/N=C(\C(=O)[N-][n+]1cnn(CC(=O)O)c1)c1csc(N)n1
SN12C renal
  TGI: > 10 µM
UACC-62 melanoma
  TGI: > 10 µM
SF-268 CNS
  TGI: > 10 µM
HCT-116 colon
  TGI: > 10 µM
OVCAR-4 ovarian
  TGI: > 10 µM

## COc1ccc(NC(=S)Nc2c(C)n(C)n(-c3ccccc3)c2=O)cc1
UACC-62 melanoma
  TGI: > 100 µM
SF-268 CNS
  TGI: > 100 µM
HCT-116 colon
  TGI: > 100 µM

## CC1=CC(=O)/C(=C/N2C(=O)CNC2=S)C(=O)O1
SN12C renal
  TGI: > 100 µM
HCT-116 colon
  TGI: > 100 µM
SK-MEL-2 melanoma
  TGI: > 100 µM
OVCAR-4 ovarian
  TGI: > 100 µM
